According to article PMC8391922, “The Combined Effect of Branching and Elongation on the Bioactivity Profile of Phytocannabinoids. Part I: Thermo-TRPs” (Biomedicines, 2021):
Like-named read-outs stand apart in the source and are kept apart here.

What was measured:
rat TRPA1 = biological target: T1, rat TRPA1 (Rattus norvegicus, UniProt Q6RI86); assay: TRPA1-mediated elevation of intracellular Ca2+ (Fluo-4) in transfected HEK-293 cells; format: cell-based; conditions: for TRPA1 Efficacy (%ITC 100 μM): percentage of the effect of 100 μM allylisothiocyanate on [Ca2+]i
T1 construct: expressed in transfected cells; host or cells: HEK-293
T1 sequence (Q6RI86 whole entry): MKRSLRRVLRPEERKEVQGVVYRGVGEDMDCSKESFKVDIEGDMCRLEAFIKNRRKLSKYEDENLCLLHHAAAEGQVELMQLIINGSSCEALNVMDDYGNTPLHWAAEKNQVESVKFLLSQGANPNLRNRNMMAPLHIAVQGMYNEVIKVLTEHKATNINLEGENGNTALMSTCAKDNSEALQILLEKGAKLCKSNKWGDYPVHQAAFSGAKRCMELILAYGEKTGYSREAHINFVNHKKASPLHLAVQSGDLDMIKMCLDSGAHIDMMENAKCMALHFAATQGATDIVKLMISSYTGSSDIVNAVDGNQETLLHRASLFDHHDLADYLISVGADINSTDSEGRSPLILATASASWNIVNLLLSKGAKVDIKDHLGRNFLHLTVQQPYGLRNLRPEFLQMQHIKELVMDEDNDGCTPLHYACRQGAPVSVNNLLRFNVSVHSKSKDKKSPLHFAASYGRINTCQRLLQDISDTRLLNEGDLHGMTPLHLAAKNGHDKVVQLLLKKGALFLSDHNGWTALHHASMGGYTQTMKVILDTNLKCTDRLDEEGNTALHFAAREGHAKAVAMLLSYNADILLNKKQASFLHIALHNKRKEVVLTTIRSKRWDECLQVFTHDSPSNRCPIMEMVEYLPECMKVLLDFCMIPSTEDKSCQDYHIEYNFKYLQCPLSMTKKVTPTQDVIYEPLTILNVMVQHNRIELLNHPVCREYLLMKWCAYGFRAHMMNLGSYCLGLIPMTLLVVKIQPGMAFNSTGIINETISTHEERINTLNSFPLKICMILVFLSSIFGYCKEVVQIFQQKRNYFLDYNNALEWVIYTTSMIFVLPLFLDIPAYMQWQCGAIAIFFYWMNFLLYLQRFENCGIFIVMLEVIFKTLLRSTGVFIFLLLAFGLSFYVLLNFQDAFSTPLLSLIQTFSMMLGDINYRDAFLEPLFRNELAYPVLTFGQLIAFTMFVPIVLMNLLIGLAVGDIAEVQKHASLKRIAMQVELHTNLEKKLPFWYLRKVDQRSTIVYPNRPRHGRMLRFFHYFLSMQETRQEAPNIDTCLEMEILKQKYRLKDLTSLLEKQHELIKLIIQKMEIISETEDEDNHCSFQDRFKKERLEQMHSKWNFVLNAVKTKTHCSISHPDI
Method: Assays of rat TRPA1, TRPV2, TRPV3, TRPV4, and TRPM8 or human TRPV1 mediated elevation of intracellular Ca ^2+ in transfected HEK-293 cells were performed with a continuous monitoring of [Ca ^2+]i during the experiments. […] Cell fluorescence before and after the addition of various concentrations of test compounds was measured, normalizing the effects against the response to ionomycin (IM, 4 μM). The values of the effect on [Ca^2+]i in HEK-293 cells not transfected were used as baseline and subtracted from the values obtained from transfected cells. For TRPA1, agonist efficacy was expressed as a percentage of the effect on [Ca ^2+]i observed with 100 μM allylisothiocyanate. […] In the TRPV3 assay, TRPV3-expressing HEK293 cells were first sensitized with the structurally unrelated agonist 2-aminoethoxydiphenyl borate (100 μM). Antagonist/desensitizing behavior is evaluated against the agonist of the TRP analyzed by adding the compounds directly in the quartz cuvette 5 min before stimulation of cells with the agonist. […] Dose-response curve fitting (sigmoidal dose-response variable slope) and parameter estimation were performed with Graph-Pad Prism8 (GraphPad Software Inc., San Diego, CA, USA). All determinations were performed at least in triplicate.

rat TRPV3 = biological target: T2, rat TRPV3 (Rattus norvegicus, UniProt Q4QYD9); assay: TRPV3-mediated elevation of intracellular Ca2+ (Fluo-4) in transfected HEK-293 cells; format: cell-based; conditions: for IC50: antagonist/desensitizing, compound added 5 min before agonist thymol 100 μM; for EC50: half-maximal increase in [Ca2+]i, HEK-293, read-out: TRPV3 Potency EC50; for TRPV3 Efficacy (% IM 4 μM): percentage of the response to ionomycin 4 μM, cells sensitized with 2-aminoethoxydiphenyl borate 100 μM
T2 construct: expressed in transfected cells; host or cells: HEK-293
T2 sequence (Q4QYD9 1-791): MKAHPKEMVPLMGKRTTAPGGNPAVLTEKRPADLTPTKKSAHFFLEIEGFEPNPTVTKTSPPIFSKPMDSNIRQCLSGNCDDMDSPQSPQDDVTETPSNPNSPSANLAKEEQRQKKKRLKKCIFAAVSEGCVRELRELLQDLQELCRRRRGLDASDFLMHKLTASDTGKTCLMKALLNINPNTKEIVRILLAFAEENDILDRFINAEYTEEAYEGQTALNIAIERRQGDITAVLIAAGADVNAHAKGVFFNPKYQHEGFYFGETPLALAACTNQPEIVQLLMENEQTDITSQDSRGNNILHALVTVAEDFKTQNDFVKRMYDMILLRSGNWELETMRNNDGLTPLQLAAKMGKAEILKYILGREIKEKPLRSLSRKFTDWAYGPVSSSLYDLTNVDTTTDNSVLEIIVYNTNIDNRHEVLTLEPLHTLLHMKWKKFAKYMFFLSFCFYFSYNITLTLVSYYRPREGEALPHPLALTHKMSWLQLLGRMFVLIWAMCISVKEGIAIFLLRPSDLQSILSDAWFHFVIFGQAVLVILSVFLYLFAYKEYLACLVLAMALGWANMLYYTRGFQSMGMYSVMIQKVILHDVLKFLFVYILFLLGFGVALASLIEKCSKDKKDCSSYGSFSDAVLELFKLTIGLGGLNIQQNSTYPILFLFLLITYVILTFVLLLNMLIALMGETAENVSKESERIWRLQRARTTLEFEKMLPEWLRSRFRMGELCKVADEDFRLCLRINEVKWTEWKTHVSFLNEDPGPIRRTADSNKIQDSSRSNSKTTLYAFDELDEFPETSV
Method: Effects of compounds on intracellular Ca^2+ concentration ([Ca^2+]i) were determined using Fluo-4, a selective intracellular fluorescent probe for Ca ^2+. Assays of rat TRPA1, TRPV2, TRPV3, TRPV4, and TRPM8 or human TRPV1 mediated elevation of intracellular Ca ^2+ in transfected HEK-293 cells were performed with a continuous monitoring of [Ca ^2+]i during the experiments. Briefly, human embryonic kidney (HEK-293) cells, stably transfected with rat TRPA1, TRPV2, TRPV3, TRPV4, and TRPM8 or human TRPV1 (selected by geneticin 600 μg mL ^−1) or not transfected, were cultured in EMEM+ 2 mM glutamine + 1% nonessential amino acids +10% FBS and maintained at 37 °C with 5% CO2. TRP-HEK-293 cells express stably high levels of TRP transcripts, while these transcripts were virtually absent in wild-type HEK-293 cells as checked by real-time PCR. On the day of the experiment, the cells were loaded for 1 h in the dark at room temperature with Fluo-4 AM (4 μM in DMSO containin 0.02% Pluronic F-127). The cells were rinsed, resuspended in Tyrode’s solution (145 mM NaCl, 2.5 mM KCl, 1.5 mM CaCl2, 1.2 mM MgCl2, 10 mM D-glucose, and 10 mM HEPES, pH 7.4), and transferred to a quartz cuvette of a spectrofluorimeter (PerkinElmer LS50B; λEX = 488 nm, λEM = 516 nm) equipped with a PTP-1 fluorescence Peltier system (PerkinElmer Life and Analytical Sciences, Waltham, MA, USA) under continuous stirring. Cell fluorescence before and after the addition of various concentrations of test compounds was measured, normalizing the effects against the response to ionomycin (IM, 4 μM). The values of the effect on [Ca^2+]i in HEK-293 cells not transfected were used as baseline and subtracted from the values obtained from transfected cells. For TRPA1, agonist efficacy was expressed as a percentage of the effect on [Ca ^2+]i observed with 100 μM allylisothiocyanate. The potency of the compounds (EC50 values) is determined as the concentration required to produce half-maximal increases in [Ca ^2+]i. In the TRPV3 assay, TRPV3-expressing HEK293 cells were first sensitized with the structurally unrelated agonist 2-aminoethoxydiphenyl borate (100 μM). Antagonist/desensitizing behavior is evaluated against the agonist of the TRP analyzed by adding the compounds directly in the quartz cuvette 5 min before stimulation of cells with the agonist. Allylisothiocyanate (100 μM) was used for TRPA1, capsaicin (0.1 μM) for TRPV1, cannabidiol (2 μM) for TRPV2, thymol (100 μM) for TRPV3, GSK1016790A (10 nM) for TRPV4, and icilin (0.25 μM) for TRPM8. The IC50 value was expressed as the concentration exerting a half-maximal inhibition of agonist effect, taking as 100% the effect on [Ca^2+]i exerted by the agonist alone. Dose-response curve fitting (sigmoidal dose-response variable slope) and parameter estimation were performed with Graph-Pad Prism8 (GraphPad Software Inc., San Diego, CA, USA). All determinations were performed at least in triplicate.

[1] = antagonist/desensitizing, compound added 5 min before agonist AITC 100 μM, read-out: IC50 TRPA1
[2] = half-maximal increase in [Ca2+]i, HEK-293, read-out: TRPA1 Potency EC50

Row | SMILES | IC50 (rat TRPA1; [1]) [nM] | EC50 (rat TRPA1; [2]) [nM] | TRPA1 Efficacy (%ITC 100 μM) (rat TRPA1; HEK-293) [%] | IC50 (rat TRPV3) [nM] | EC50 (rat TRPV3) [nM] | TRPV3 Efficacy (% IM 4 μM) (rat TRPV3) [%] | EC50 (rat TRPA1) [nM] | IC50 (rat TRPA1) [nM]
1 | C=C(C)[C@@H]1CCC(C)=C[C@H]1c1c(O)cc(C(C)(C)CCCCCC)cc1O [1b, Depentyl-α,α-dimethylheptyl-cannabidiol] | 510 ± 30 | 400 ± 150 | 133.4 ± 5.3 | 32600 ± 5100 | 11000 ± 1100 | 15.8 ± 0.4 |  | 
2 | CCCCCCC(C)(C)c1cc(O)c(C/C=C(\C)CCC=C(C)C)c(O)c1 [7b, Depentyl-α,α-dimethylheptyl-cannabigerol] | 1700 ± 150 | 9100 ± 2000 | 99.2 ± 4.5 | 35400 ± 3600 | 39700 ± 30 | 64.6 ± 4.8 |  | 
3 | CCCCCCC(C)(C)c1cc(O)c2c(c1)OC(C)(CCC=C(C)C)C=C2 (stereo not drawn) [8b, Depentyl-α,α-dimethylheptyl-cannabichromene] |  |  | 120.4 ± 2.8 | > 50000 | > 50000 | 41.6 ± 1.8 | 760 ± 120 | 320 ± 10
4 | CCCCCCCc1cc(O)c2c(c1)OC(C)(CCC=C(C)C)C=C2 (stereo not shown) [8c, Depentyl-5-n-heptylcannabichromene] | 3800 ± 350 | 1200 ± 200 | 97.8 ± 3.3 | > 100000 |  | <10 |  | 
5 | CCCCC(C)(C)c1cc(O)c2c(c1)OC(C)(CCC=C(C)C)C=C2 (stereo not drawn) [8d, Depentyl-5-α,α-dimethylpentylcannabichromene] | 400 ± 10 | 150 ± 30 | 98.7 ± 1.9 | > 100000 |  | <10 |  | 
